Laboratory results as given in patent US7078403B1, “Antiviral agents” (Biota Scientific Management Pty Ltd., priority 1999, dated 2006).

What was measured:
HRV type 1A = test: Inhibition of viral cytopathic effect (CPE), visual scoring or neutral red, HRV type 1A in MRC-5 cells; format: cell-based, human rhinovirus; conditions: for Activity on Rhinovirus Type 1A EC50: HRV type 1A in MRC-5 cells, CPE inhibition; for Activity on Rhinovirus Type 1A SI: selectivity index = CC50 or MTC divided by EC50, HRV type 1A, MRC-5 cells
[1] = tested on: human embryo lung (MRC-5) cells; test: Cytotoxicity (CC50 or MTC) in uninfected MRC-5 cells; conditions: unit not given
HRV type 2 = test: Inhibition of viral cytopathic effect (CPE), visual scoring or neutral red, HRV type 2 in KB cells; format: cell-based, human rhinovirus; conditions: for Activity on Rhinovirus Type 2 EC50: HRV type 2 in KB cells, CPE inhibition; for Activity on Rhinovirus Type 2 SI: selectivity index = CC50 or MTC divided by EC50, HRV type 2, KB cells
Rhinovirus Type 14 = format: cell-based, human rhinovirus; conditions: HRV-14

Question: With C=CCON=Cc1cc(O)cc(OCCC2CCN(c3ccc(Cl)nn3)CC2)c1 [Compound 40] as the compound, how does the “Activity on Rhinovirus Type 1A EC50” value (HRV type 1A) read?
Answer: The value was 0.583 µg/mL.

Question: What about the “Activity on Rhinovirus Type 1A SI” value (HRV type 1A) of the same compound?
Answer: The value was >1.72.

Question: What about the “Activity on Rhinovirus Type 1A MTC” value [1] of the same compound?
Answer: The value was >1.

Question: What about the “Activity on Rhinovirus Type 2 EC50” value (HRV type 2) of the same compound?
Answer: Its value is 0.4 µg/mL.

Question: And the “Activity on Rhinovirus Type 2 SI” value (HRV type 2)?
Answer: Its value is >3.

Question: With CCc1cnc(N2CCC(CCOc3ccc(/C=N/OC)cc3)CC2)nc1 [Compound 204] as the compound, how does the “Activity on Rhinovirus Type 14 EC50” value (Rhinovirus Type 14) read?
Answer: The value was 0.0554 µg/mL.

Question: With CCO/N=C/c1ccc(OCCC2CCN(c3ncc(CC)cn3)CC2)cc1 [Compound 205] as the compound, how does the “Activity on Rhinovirus Type 14 EC50” value (Rhinovirus Type 14) read?
Answer: The value was 0.0638 µg/mL.

Question: Which “Activity on Rhinovirus Type 1A EC50” value (HRV type 1A) does the source give for CON=C(C)c1ccc(OCCC2CCN(c3ccc(Cl)nn3)CC2)c(OC)c1 [Compound 19] here?
Answer: The value was <0.0032 µg/mL.

Question: And the “Activity on Rhinovirus Type 1A SI” value (HRV type 1A)?
Answer: The value was >312.

Question: What about the “Activity on Rhinovirus Type 1A MTC” value [1] of the same compound?
Answer: The value was >1.

Question: What about the “Activity on Rhinovirus Type 2 EC50” value (HRV type 2) of the same compound?
Answer: Its value is 0.019 µg/mL.

Question: And the “Activity on Rhinovirus Type 2 SI” value (HRV type 2)?
Answer: Its value is >53.

Question: What does the source list for CCON=Cc1ccc(OCCC2CCN(c3ccc(OCC(F)(F)F)nn3)CC2)cc1 [Compound 21]?
Answer: Activity on Rhinovirus Type 1A EC50 (HRV type 1A): >1 µg/mL; Activity on Rhinovirus Type 1A MTC [1]: >1; Activity on Rhinovirus Type 2 EC50 (HRV type 2): 0.3 µg/mL; Activity on Rhinovirus Type 2 SI (HRV type 2): >3

Question: For CON=Cc1cc(C)c(OCCC2CCN(c3ccc(C)nn3)CC2)cc1C [Compound 191], which “Activity on Rhinovirus Type 14 EC50” value (Rhinovirus Type 14) is on record?
Answer: Its value is 0.0256 µg/mL.

Question: Which “Activity on Rhinovirus Type 1A EC50” value (HRV type 1A) does the source give for Clc1ccc(N2CCC(CCOc3ccc(C=NOCc4ccccc4)cc3)CC2)nn1 [Compound 15] here?
Answer: Its value is >1.0 µg/mL.

Question: What about the “Activity on Rhinovirus Type 1A MTC” value [1] of the same compound?
Answer: Its value is >1.0.

Question: What about the “Activity on Rhinovirus Type 2 EC50” value (HRV type 2) of the same compound?
Answer: The value was 0.9 µg/mL.

Question: What about the “Activity on Rhinovirus Type 2 SI” value (HRV type 2) of the same compound?
Answer: Its value is <1.

Question: For CCO/N=C/c1ccc(OCCC2CCN(c3ccc(C)nn3)CC2)cc1OC [Compound 187], which “Activity on Rhinovirus Type 14 EC50” value (Rhinovirus Type 14) is on record?
Answer: The value was 0.0103 µg/mL.

Question: Which results are given for CON=Cc1cccc(OCCC2CCN(c3ccc(Cl)nn3)CC2)c1 [Compound 16]?
Answer: Activity on Rhinovirus Type 1A EC50 (HRV type 1A): <0.0032 µg/mL; Activity on Rhinovirus Type 1A SI (HRV type 1A): >312; Activity on Rhinovirus Type 1A MTC [1]: >1; Activity on Rhinovirus Type 2 EC50 (HRV type 2): <0.001 µg/mL; Activity on Rhinovirus Type 2 SI (HRV type 2): >1000

Question: For CC(C)ON=Cc1ccc(OCCC2CCN(c3ccc(Cl)nn3)CC2)cc1 [Compound 12], which “Activity on Rhinovirus Type 1A EC50” value (HRV type 1A) is on record?
Answer: The value was 0.00355 µg/mL.

Question: And the “Activity on Rhinovirus Type 1A SI” value (HRV type 1A)?
Answer: The value was >273.7.

Question: What about the “Activity on Rhinovirus Type 1A MTC” value [1] of the same compound?
Answer: Its value is >1.

Question: What about the “Activity on Rhinovirus Type 2 EC50” value (HRV type 2) of the same compound?
Answer: Its value is 0.02 µg/mL.

Question: And the “Activity on Rhinovirus Type 2 SI” value (HRV type 2)?
Answer: The value was 50.

Question: Which results are given for CCON=Cc1ccc(OCCC2CCN(c3ccc(C)nn3)CC2)c(C)c1 [Compound 51]?
Answer: Activity on Rhinovirus Type 1A EC50 (HRV type 1A): <0.003 µg/mL; Activity on Rhinovirus Type 1A SI (HRV type 1A): >207.3; Activity on Rhinovirus Type 1A MTC [1]: 0.663; Activity on Rhinovirus Type 14 EC50 (Rhinovirus Type 14): 0.0093 µg/mL

Question: For Cc1cc(CCCOc2c(C)cc(C=NOCc3ccccc3)cc2C)on1 [Compound 25], which “Activity on Rhinovirus Type 1A EC50” value (HRV type 1A) is on record?
Answer: Its value is 0.36 µg/mL.

Question: What about the “Activity on Rhinovirus Type 1A SI” value (HRV type 1A) of the same compound?
Answer: The value was >139.4.

Question: What about the “Activity on Rhinovirus Type 1A MTC” value [1] of the same compound?
Answer: The value was >50.

Question: What about the “Activity on Rhinovirus Type 2 EC50” value (HRV type 2) of the same compound?
Answer: Its value is 0.5 µg/mL.

Question: What about the “Activity on Rhinovirus Type 2 SI” value (HRV type 2) of the same compound?
Answer: Its value is 34.

Question: How did the “Activity on Rhinovirus Type 14 EC50” value (Rhinovirus Type 14) turn out when CCO/N=C/c1ccc(OCCC2CCN(c3nc(OC)nc(OC)n3)CC2)cc1 [Compound 203] was run?
Answer: Its value is 0.060 µg/mL.

Question: For CCON=C(C)c1ccc(OCCC2CCN(c3ccc(C)nn3)CC2)cc1 [Compound 4], which “Activity on Rhinovirus Type 1A EC50” value (HRV type 1A) is on record?
Answer: The value was 0.39 µg/mL.

Question: And the “Activity on Rhinovirus Type 1A SI” value (HRV type 1A)?
Answer: Its value is 25.55.

Question: What about the “Activity on Rhinovirus Type 1A MTC” value [1] of the same compound?
Answer: Its value is 10.00.

Question: And the “Activity on Rhinovirus Type 2 EC50” value (HRV type 2)?
Answer: The value was 0.5 µg/mL.

Question: And the “Activity on Rhinovirus Type 2 SI” value (HRV type 2)?
Answer: The value was >2.

Question: For CCON=C(C)c1ccc(OCCC2CCN(c3ccc(Cl)nn3)CC2)cc1 [Compound 3], which “Activity on Rhinovirus Type 1A EC50” value (HRV type 1A) is on record?
Answer: The value was 0.005 µg/mL.

Question: And the “Activity on Rhinovirus Type 1A SI” value (HRV type 1A)?
Answer: The value was 1841.

Question: What about the “Activity on Rhinovirus Type 1A MTC” value [1] of the same compound?
Answer: The value was >10.0.

Question: And the “Activity on Rhinovirus Type 2 EC50” value (HRV type 2)?
Answer: Its value is 0.01 µg/mL.

Question: And the “Activity on Rhinovirus Type 2 SI” value (HRV type 2)?
Answer: Its value is >100.

Question: Which “Activity on Rhinovirus Type 14 EC50” value (Rhinovirus Type 14) does the source give for CO/N=C/c1ccc(OCCC2CCN(c3ccc(C)nn3)CC2)cc1C [Compound 189] here?
Answer: Its value is 0.0011 µg/mL.

Question: CCON=Cc1cc(C)c(OCCC2CCN(c3ccc(C)nn3)CC2)cc1C [Compound 190] was tested. Which “Activity on Rhinovirus Type 14 EC50” value (Rhinovirus Type 14) did it give?
Answer: The value was 0.0593 µg/mL.

Question: CCON=Cc1ccc(OCC2CCN(c3ccc(Cl)nn3)CC2)cc1 [Compound 31] was tested. Which “Activity on Rhinovirus Type 1A EC50” value (HRV type 1A) did it give?
Answer: The value was 0.017 µg/mL.

Question: What about the “Activity on Rhinovirus Type 1A SI” value (HRV type 1A) of the same compound?
Answer: The value was >59.6.

Question: What about the “Activity on Rhinovirus Type 1A MTC” value [1] of the same compound?
Answer: The value was >1.

Question: And the “Activity on Rhinovirus Type 2 EC50” value (HRV type 2)?
Answer: Its value is 0.003 µg/mL.

Question: And the “Activity on Rhinovirus Type 2 SI” value (HRV type 2)?
Answer: Its value is >333.

Question: How did the “Activity on Rhinovirus Type 14 EC50” value (Rhinovirus Type 14) turn out when CO/N=C/c1ccc(OCCC2CCN(c3nc(OC)nc(OC)n3)CC2)cc1 [Compound 202] was run?
Answer: The value was 0.0593 µg/mL.

Question: How did the “Activity on Rhinovirus Type 14 EC50” value (Rhinovirus Type 14) turn out when CCON=Cc1ccc(OCCC2CCN(c3cnc(Cl)cn3)CC2)cc1 [Compound 160] was run?
Answer: The value was 0.0502 µg/mL.

Question: CO/N=C/c1ccc(OCCC2CCN(c3nc4ccccc4s3)CC2)cc1 [Compound 206] was tested. Which “Activity on Rhinovirus Type 14 EC50” value (Rhinovirus Type 14) did it give?
Answer: The value was 0.0233 µg/mL.

Question: For CCON=Cc1cc(C)c(OCCC2CCN(c3ccc(Cl)nn3)CC2)c(C)c1 [Compound 45], which “Activity on Rhinovirus Type 1A EC50” value (HRV type 1A) is on record?
Answer: Its value is 0.029 µg/mL.

Question: What about the “Activity on Rhinovirus Type 1A SI” value (HRV type 1A) of the same compound?
Answer: Its value is >34.0.

Question: And the “Activity on Rhinovirus Type 1A MTC” value [1]?
Answer: The value was >1.

Question: What about the “Activity on Rhinovirus Type 2 EC50” value (HRV type 2) of the same compound?
Answer: Its value is 0.03 µg/mL.

Question: What about the “Activity on Rhinovirus Type 2 SI” value (HRV type 2) of the same compound?
Answer: Its value is >32.

Question: Which results are given for N#CCON=Cc1ccc(OCCC2CCN(c3ccc(Cl)nn3)CC2)cc1 [Compound 14]?
Answer: Activity on Rhinovirus Type 1A EC50 (HRV type 1A): <0.0032 µg/mL; Activity on Rhinovirus Type 1A SI (HRV type 1A): >312; Activity on Rhinovirus Type 1A MTC [1]: >1; Activity on Rhinovirus Type 2 EC50 (HRV type 2): 0.046 µg/mL; Activity on Rhinovirus Type 2 SI (HRV type 2): 13
